Source: patent publication US10023538B2, “Compounds, compositions and associated methods comprising 3-aryl quinolines” (Oregon Health & Science University, priority 2012, dated 2018)
pIC50: −log10 of the molar value. Read-outs that look alike come from different tables or passages of the source.

Experiments:
P. falciparum strain 7G8 = test: Antiplasmodial fluorescence-based SyBr Green assay, strain 7G8; format: cell-based, Plasmodium falciparum
Experimental: (§1) The IC50 values listed in Table 1 were determined by the fluorescence-based SyBr Green assay described in Smilkstein (Smilkstein M, Antimicrob Agents Chemother 48, 1803-1806 (2004)). Values are the mean of at least two experiments, each performed in triplicate. […] NT=not tested.

P. falciparum strain Dd2 = test: Antiplasmodial fluorescence-based SyBr Green assay, strain Dd2; format: cell-based, Plasmodium falciparum
Experimental: as §1

P. falciparum strain D6 = test: Antiplasmodial fluorescence-based SyBr Green assay, strain D6; format: cell-based, Plasmodium falciparum
Experimental: as §1

[1] = tested on: P. falciparum strain Tm90.C2B; test: Antiplasmodial activity against strain Tm90.C2B; format: cell-based, Plasmodium falciparum
Experimental: as §1
Furthermore, Compound 1 was evaluated against the strain Tm90.C2B.

P. yoelii = test: In vivo efficacy, P. yoelii mouse model of malaria (Strain K model); parameters: species or system female CF1 mice; details: P. yoelii / CF1 mice
Experimental: The efficacy of Compound 1 in vivo using a P. yoelii mouse model of malaria (Strain K model) was studied. Female CF1 mice were inoculated intravenously with 1-2 million infected red blood cells obtained from infected donor animals. Infected cells were collected then randomly sorted into groups of four mice on Day 0. Drug administration began on Day 1. […] Both drugs were administered daily by gavage as the dihydrochloride salt dissolved in 100 μl of water for Days, 1, 2, 3, and 4. Blood films were prepared on Day 5 (the day after the final drug dose), fixed in methanol, stained with Giemsa, and viewed microscopically to assess parasitemia.

P. falciparum strains = test: Antiplasmodial IC50 across P. falciparum strains (average / range); format: cell-based, Plasmodium falciparum
Experimental: as §1

[2] = Heme binding affinity in solution (UV/visible titration, NMR); details: 20 mM phosphate buffer, pH 7.0, 25° C.; titration and NMR
Experimental: The binding affinity of Compound 1 and heme in solution was assessed as described by Kelly (Kelly, J X et al, Antimicrob Agents Chemother 46, 144-150 (2002); Kelly J X et al, Mol Biochem Parasitol 123, 47-54 (2002)). This assay correlates heme binding affinity and the mode of binding (i.e., binding to heme monomer or dimer) to intrinsic antimalarial activity in vitro and in vivo.
Association constants for heme-drug complexes were determined with all titrations conducted under aqueous conditions in 20 mM phosphate buffer, at pH 7.0 and 25° C. Titrations with compounds were performed by successive addition of aliquots of a 1 mM stock solution to a 10 μM heme solution at constant pH. All UV/visible spectral data was analyzed digitally with absorbance readings and concentrations corrected for dilution effects. The resulting titration curves were analyzed with Hill plot (Cantor and Schimmel, Biophysical Chemistry, W H Freeman and Co, New York, 1980) and non-linear curve fitting methods (Connors, Chemical Kinetics, VCH Publishers, New York, 1990). Titration curves were fit to the most accurate binding isotherm and stoichiometry.
Heme:drug interaction was assessed by NMR. NMR investigations involving Compound 1 binding to heme were performed as described in Kelly (Kelly, et al, supra).

hERG potassium channel = hERG potassium channel (Homo sapiens, UniProt Q12809); test: hERG channel inhibition, QPatch HT automatic parallel patch clamp; format: cell-based; details: hERG current expressed in mammalian cells, room temperature, tested at 1, 4, 12 μM in duplicate
hERG potassium channel, sequence (Q12809 whole entry): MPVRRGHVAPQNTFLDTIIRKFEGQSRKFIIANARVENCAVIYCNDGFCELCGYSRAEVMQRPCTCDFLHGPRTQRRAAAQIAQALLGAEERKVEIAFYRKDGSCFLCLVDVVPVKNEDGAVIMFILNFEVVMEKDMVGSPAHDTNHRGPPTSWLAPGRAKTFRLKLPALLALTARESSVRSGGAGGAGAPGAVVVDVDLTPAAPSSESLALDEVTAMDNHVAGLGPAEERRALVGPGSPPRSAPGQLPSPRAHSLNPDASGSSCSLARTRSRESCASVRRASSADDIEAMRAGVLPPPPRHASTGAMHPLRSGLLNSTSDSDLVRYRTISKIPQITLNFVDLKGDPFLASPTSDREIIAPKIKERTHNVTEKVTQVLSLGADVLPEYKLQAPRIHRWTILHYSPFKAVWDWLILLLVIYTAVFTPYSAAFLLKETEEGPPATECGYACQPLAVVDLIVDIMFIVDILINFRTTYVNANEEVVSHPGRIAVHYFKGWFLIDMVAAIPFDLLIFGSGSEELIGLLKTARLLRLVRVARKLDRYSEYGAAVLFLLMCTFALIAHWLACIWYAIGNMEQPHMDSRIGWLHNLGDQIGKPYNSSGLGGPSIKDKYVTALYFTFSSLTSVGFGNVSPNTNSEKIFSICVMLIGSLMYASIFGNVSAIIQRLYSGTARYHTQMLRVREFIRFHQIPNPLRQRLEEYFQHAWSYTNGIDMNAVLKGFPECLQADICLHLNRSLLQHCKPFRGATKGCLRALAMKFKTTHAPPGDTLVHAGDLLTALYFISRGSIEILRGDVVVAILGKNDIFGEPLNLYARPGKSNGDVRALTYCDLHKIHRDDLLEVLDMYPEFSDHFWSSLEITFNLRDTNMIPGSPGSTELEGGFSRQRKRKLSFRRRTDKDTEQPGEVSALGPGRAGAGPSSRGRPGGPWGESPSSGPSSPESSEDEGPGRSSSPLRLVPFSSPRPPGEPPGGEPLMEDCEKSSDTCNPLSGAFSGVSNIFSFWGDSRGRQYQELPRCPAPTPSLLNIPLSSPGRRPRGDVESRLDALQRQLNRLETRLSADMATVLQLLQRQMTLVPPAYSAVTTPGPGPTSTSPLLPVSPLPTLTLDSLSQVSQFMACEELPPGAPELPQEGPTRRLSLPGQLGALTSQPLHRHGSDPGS

[3] = Cytotoxicity vs. murine splenic lymphocytes; format: cell-based; details: mouse
[4] = Plasmodium falciparum, P. falciparum 7G8, multidrug resistant, mean of at least two experiments in triplicate, read-out: IC50 Values (nM) Strain 7G8
[5] = Plasmodium falciparum, P. falciparum Dd2, multidrug resistant, mean of at least two experiments in triplicate, read-out: IC50 Values (nM) Strain Dd2
[6] = Plasmodium falciparum, D6; read-out: IC50 Values (nM) Strain D6
[7] = P. falciparum 7G8, multidrug resistant, mean of at least two experiments in triplicate, read-out: IC50 Values (nM) Strain 7G8
[8] = P. falciparum Dd2, multidrug resistant, mean of at least two experiments in triplicate, read-out: IC50 Values (nM) Strain Dd2
[9] = P. falciparum D6, chloroquine sensitive; mean of at least two experiments in triplicate; read-out: IC50 Values (nM) Strain D6
[10] = Plasmodium falciparum, P. falciparum Tm90.C2B, multidrug and atovaquone resistant, unit inferred, read-out: IC50 value against strain Tm90.C2B
[11] = Plasmodium falciparum, 7G8, read-out: IC50 Values (nM) Strain 7G8
[12] = Plasmodium falciparum, DD2, read-out: IC50 Values (nM) Strain Dd2
[13] = Plasmodium falciparum, D6, read-out: IC50 Values (nM) Strain D6

Row | Structure (SMILES) | IC50 (P. falciparum strain 7G8; [4]) [nM] | IC50 (P. falciparum strain Dd2; [5]) [nM] | IC50 (P. falciparum strain D6; [6]) [nM] | also measured
1 | CCN(CC)CCCNc1c(-c2ccc(OC(F)(F)F)cc2)cnc2cc(Cl)ccc12 [Compound 24] | – | – | – | IC50 (P. falciparum strain 7G8; [7]): 8.5 nM; IC50 (P. falciparum strain Dd2; [8]): 4.4 nM; IC50 (P. falciparum strain D6; [9]): 3.4 nM
2 | CC(C)(C)NCCCNc1c(-c2ccccc2)cnc2cc(Cl)ccc12 [Compound 3] | 6.4 | 17 | 8.7 | –
3 | COc1ccc(-c2cnc3cc(Cl)ccc3c2NCCCNC(C)(C)C)cc1 [Compound 11] | 20.6 | 11.7 | 9.5 | –
4 | CC(C)(C)NCCCNc1c(-c2ccc(C(F)(F)F)nc2)cnc2cc(Cl)ccc12 [Compound 5] | 132 | 89 | 55.2 | –
5 | CC(C)(C)NCCCNc1c(-c2ccc(OC(F)(F)F)cc2)cnc2cc(Cl)ccc12 [Compound 1, N1-(tert-butyl)-N3-(7-chloro-3-(4-(trifluoromethoxy)phenyl)-quinolin-4-yl)-propane-1,3-diamine] | 1.3 | 1.4 | 0.9 | ED50 (P. yoelii; gavage daily Days 1-4, parasitemia Day 5, drugs given as salts): 0.25 mg/kg/day; Cure of animals (P. yoelii; at 16 and 64 mg/kg/day): cured all animals; pIC50 (P. falciparum strains; Plasmodium falciparum, average over strains, read-out: Avg IC50 values vs P. falciparum strains): 8.92; Affinity for free heme [2]: strong affinity for free heme; pIC50 (hERG potassium channel): 5.40; pIC50 [1, 10]: 8.89; pIC50 [3]: 5.30
6 | CCN(CC)CCCC(C)Nc1c2ccc(Cl)cc2nc2ccc(OC)cc12 (stereo not shown) [Quinacrine, reference compound] | – | – | – | IC50 (P. falciparum strain 7G8; [11]): 9 nM; IC50 (P. falciparum strain Dd2; [12]): 10 nM; IC50 (P. falciparum strain D6; [13]): 5 nM
7 | CCN(CC)CCCC(C)Nc1c(C)cnc2cc(Cl)ccc12 (stereo not shown) [Sontochin, reference compound] | – | – | – | pIC50 (P. falciparum strains; range over Table 1 strains, read-out: IC50 values against the drug resistant strains of P. falciparum (range)): 7.70 to 8.10; IC50 (P. falciparum strain 7G8; [7]): 20 nM; IC50 (P. falciparum strain Dd2; [8]): 19 nM; pIC50 ([1]; P. falciparum Tm90.C2B, multidrug and atovaquone resistant, unit inferred, read-out: IC50 value against strain Tm90.C2B): 7.72; IC50 (P. falciparum strain D6; [9]): 8 nM
8 | CN(C)c1ccc(-c2cnc3cc(Cl)ccc3c2NCCCNC(C)(C)C)cc1 [Compound 12] | 11.7 | 7 | 5.1 | –
9 | CC(C)(C)NCCCNc1c(-c2ccc(Br)cc2)cnc2cc(Cl)ccc12 [Compound 16] | – | – | – | IC50 (P. falciparum strain 7G8; [7]): 2.5 nM; IC50 (P. falciparum strain Dd2; [8]): < 2.5 nM; IC50 (P. falciparum strain D6; [9]): < 2.5 nM
10 | CC(C)(C)NCCCNc1c(-c2ccc(F)cc2)cnc2cc(Cl)ccc12 [Compound 10] | – | – | – | IC50 (P. falciparum strain 7G8; [7]): 32.8 nM; IC50 (P. falciparum strain Dd2; [8]): 11.7 nM; IC50 (P. falciparum strain D6; [9]): 13.1 nM
11 | CCN(CC)CCCC(C)Nc1ccnc2cc(Cl)ccc12 (stereo not shown) [Chloroquine, reference compound] | – | – | – | Cure of animals (P. yoelii; at dosages as high as 64 mg/kg/day): did not cure any of the animals; IC50 (P. falciparum strain 7G8; [11]): 78 nM; IC50 (P. falciparum strain Dd2; [12]): 120 nM; pIC50 ([1]; Plasmodium falciparum, TM90, read-out: IC50 value against strain Tm90.C2B): 6.97; IC50 (P. falciparum strain D6; [13]): 9.2 nM
12 | CC(C)(C)NCCCNc1c(-c2ccc(CN3CCOCC3)cc2)cnc2cc(Cl)ccc12 [Compound 15] | – | – | – | IC50 (P. falciparum strain 7G8; [7]): 0.9 nM; IC50 (P. falciparum strain Dd2; [8]): 0.9 nM; IC50 (P. falciparum strain D6; [9]): 0.8 nM
13 | CC(C)(C)NCCCNc1c(-c2ccc(Cl)cc2)cnc2cc(Cl)ccc12 [Compound 2] | 5.8 | 15 | 8 | –
14 | CC(C)(C)NCCCNc1c(-c2ccc(-c3ccc(OC(F)(F)F)cc3)cc2)cnc2cc(Cl)ccc12 [Compound 8] | – | – | – | IC50 (P. falciparum strain 7G8; [7]): 8.3 nM; IC50 (P. falciparum strain Dd2; [8]): 5.9 nM; IC50 (P. falciparum strain D6; [9]): 5.3 nM
15 | O=C1C(O)=C([C@H]2CC[C@H](c3ccc(Cl)cc3)CC2)C(=O)c2ccccc21 [Atovaquone, reference compound] | 0.1 | 0.1 | 0.1 | pIC50 [1, 10]: 5.11
16 | CC(C)(C)NCCCNc1c(-c2ccc(OC(F)F)cc2)cnc2cc(Cl)ccc12 [Compound 13] | 5.6 | 4.9 | 2.4 | –
17 | CC(C)(C)NCCCNc1c(-c2ccc(-c3ccccc3)cc2)cnc2cc(Cl)ccc12 [Compound 7] | 1.4 | 2.9 | 0.9 | –
18 | CC(C)(C)NCCNc1c(-c2ccc(OC(F)(F)F)cc2)cnc2cc(Cl)ccc12 [Compound 26] | – | – | – | IC50 (P. falciparum strain 7G8; [7]): 4.5 nM; IC50 (P. falciparum strain Dd2; [8]): 4.9 nM; IC50 (P. falciparum strain D6; [9]): 0.6 nM
19 | CC(C)(C)NCCCNc1c(-c2ccc(N3CCOCC3)cc2)cnc2cc(Cl)ccc12 [Compound 14] | 8.2 | 6.7 | 4.4 | –
20 | CC(C)(C)NCCCNc1c(-c2ccc(Oc3ccc(OC(F)(F)F)cc3)cc2)cnc2cc(Cl)ccc12 [Compound 6] | 1.6 | 3.3 | 2.3 | –
21 | CC(C)(C)NCCCNc1c(-c2ccc(C(F)(F)F)cc2)cnc2cc(Cl)ccc12 [Compound 4] | 9.7 | 11.9 | 4.8 | –

Further lines, with some results ahead:

Row | IC50 (P. falciparum strain 7G8; [4]) [nM] | IC50 (P. falciparum strain Dd2; [5]) [nM] | IC50 (P. falciparum strain D6; [6]) [nM] | Structure (SMILES) | also measured
22 | 93 | 80 | 35 | CCN(CC)CCNc1c(-c2ccc(OC(F)(F)F)cc2)cnc2cc(Cl)ccc12 [Compound 23] | –
23 | 11.1 | 7.8 | 3.5 | CCN(CC)CCCC(C)Nc1c(-c2ccc(OC(F)(F)F)cc2)cnc2cc(Cl)ccc12 (stereo not shown) [Compound 25] | –
24 | < 2.5 | < 2.5 | < 2.5 | CC(C)(C)NCCCNc1c(-c2cccc(OC(F)(F)F)c2)cnc2cc(Cl)ccc12 [Compound 18] | –
25 | 30 | 87 | 19 | C=C[C@H]1C[N@@]2CC[C@H]1C[C@H]2[C@H](O)c1ccnc2ccc(OC)cc12 [Quinine, reference compound] | pIC50 [1, 10]: 7.02
26 | 26.3 | 21.8 | 13.5 | CC(C)(C)NCCCNc1c(-c2ccc(C#N)cc2)cnc2cc(Cl)ccc12 [Compound 17] | –
27 | < 2.5 | 1.8 | 0.7 | FC(F)(F)Oc1ccc(-c2cnc3cc(Cl)ccc3c2NCCC2CCCCN2)cc1 (stereo not shown) [Compound 22] | –
